According to US8637237B2, “Methods, compositions, and systems for the identification of species-specific or developmental stage-specific insecticides” (The University of North Carolina at Greensboro, priority 2003, dated 2014):

Legend:
[1] = system: insect; conditions: from Schneiderman and Gilbert, Science 143; cited from earlier work
[2] = system: Drosophila melangaster EcR isoforms; assay: Drosophila melanogaster EcR isoforms, response to ecdysteroid agonists (FIG. 8); type: cell-based
Procedure: Unless noted otherwise, 100 ng of each EcR and USP plasmid was transfected into 2 ml of cell culture medium. As noted above, a reporter gene carrying five tandem copies of the hsp27 ecdysone response element (Riddihough and Pelham, 1986) is attached to a constitutive thymidine kinase promoter and a luciferase reporter gene (pEcREtk-LUC) and cotransfected into the cells along with vectors expressing EcR, USP, and a constitutively active β-galactosidase gene with lipofection, following manufacturer's protocols. The subsequent measure of luciferase activity reflects ecdysteroid-inducible transcription.
The Drosophila EcR isoform vectors (A, B1, and B2) used for these experiments have been described previously (Mouillet et al, 2001). These vectors lack the F-domain, which is also not essential for in vivo function (Cherbas et al, 2003). Additionally, three different VP16-USP vectors were utilized. Construction is of the VP16-USP vectors is described below. As in the earlier study, hsp27-EcRE mediated transcriptional activity was measured by detecting the luminescence produced by luciferase in transfected cell extracts. Luciferase activity was normalized by transfection with a plasmid that constitutively expresses the β-galactosidase gene such that enzymatic activity correlated with cellular mass. […]

[3] = target: T1, GGEc (Drosophila melanogaster, UniProt P34021); assay: GGEc chimera (GR amino terminus and DBD, EcR LBD) with RXR in CHO cells; type: cell-based; conditions: 20 μM juvocimene; 0.2 μM muristerone A
T1 construct: were replaced by EcR LBD amino acids (EcR amino acids 329 to 878); expressed in transfected cells; host or cells: CHO
T1 sequence (P34021 329-878): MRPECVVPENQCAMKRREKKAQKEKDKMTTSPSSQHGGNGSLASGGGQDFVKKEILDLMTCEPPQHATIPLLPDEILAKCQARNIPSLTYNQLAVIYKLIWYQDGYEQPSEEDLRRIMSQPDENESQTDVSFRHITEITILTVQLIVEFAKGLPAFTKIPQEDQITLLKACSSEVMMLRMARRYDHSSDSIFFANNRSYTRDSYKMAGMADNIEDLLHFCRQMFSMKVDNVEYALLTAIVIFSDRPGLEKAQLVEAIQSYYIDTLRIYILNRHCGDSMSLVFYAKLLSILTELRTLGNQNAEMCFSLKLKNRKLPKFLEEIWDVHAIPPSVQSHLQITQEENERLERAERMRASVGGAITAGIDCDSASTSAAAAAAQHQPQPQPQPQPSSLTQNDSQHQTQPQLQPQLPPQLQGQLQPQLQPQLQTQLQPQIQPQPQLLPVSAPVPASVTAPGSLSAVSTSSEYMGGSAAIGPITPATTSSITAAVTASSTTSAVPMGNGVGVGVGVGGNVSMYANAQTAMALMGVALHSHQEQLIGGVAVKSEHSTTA
Excerpt: For these experiments, the luciferase reporter construct was used. To obviate influences from other transcription factors, results were normalized using a reporter plasmid from which CAT expression is driven by a minimal promoter consisting of dimerized GREs linked upstream of a 13 base pair TATA box DNA element derived from the adenovirus E1B gene.
In this experiment, GGEc and RXR were transfected into CHO cells with either a CAT or a luciferase reporter plasmid containing 1.5 kilobase pairs of the glucocorticoid-inducible mouse mammary tumor virus (MTV) promoter.
In these experiments, CHO cells were transfected with a GGEc-expressing plasmid, a mouse RXRα expression plasmid, and an adenovirus E1b TATA-(GRE)2-CAT reporter plasmid. The GGEc plasmid was eliminated from DNA mixtures added to cells transfected in parallel. CAT activities were measured from lysates of cells from triplicate wells treated with ethanol vehicle, juvocimene (20 μM), muristerone A (0.2 μM), or both.
In these experiments, CHO cells were transfected with DNAs as described above but ubiquinone-2 (10 μM) was substituted for juvocimene.

Compound: CC(C)=CCCC(C)=CCCC(C)=CC(=O)O [farnesoic acid]
- JH ACTIVITY (units/g) [1]: 7.8 units/g

Compound: CC(C)CC[C@@H](O)[C@](C)(O)[C@H]1CC[C@@]2(O)C3=CC(=O)[C@]4(O)C[C@@H](O)[C@@H](O)C[C@]4(C)[C@H]3[C@H](O)C[C@]12C [murA, muristerone A]
- stimulation of Drosophila EcR isoforms, agonists compared [2]: much greater stimulation by murA, than either 20E or RH 2485

Compound: juvocimene
- GGEc activity increase over MUR [3]: 7 times
